# How the values were obtained:
# Assay type in all cases: cell-based, Toxoplasma gondii
# T. gondii [1] = assay: Tachyzoite to bradyzoite conversion (P34 marker and Hsp90 subcellular localization by IFA); conditions: RH ΔUPRT strain, bradyzoite conditions 4 days, 100 nM GA
# Method: FIG. 6 is two graphs showing that GA blocks tachyzoite to bradyzoite conversion. Parasites were grown under bradyzoite differentiation conditions for 4 days in the presence of 100 nM of GA or DMSO. FIG. 6A is RH UPRT knock-out parasites, and FIG. 6B is PK parasites. The y-axes depict the number of parasites/PV cysts. Cytoplasmic (c) and nuclear (n) Hsp90 localization was determined by IFA with rabbit anti-T. gondii Hsp90 serum. Parasites were also stained with the bradyzoite-specific marker p34 and scored as P34 positive (p34+) or negative (p34−). The number of P34−/Hsp90c; P34−/Hsp90c,n; P34+/Hsp90c; and P34+/Hsp90c,n per 100 PV-Cysts was counted at random, in three independent experiments.
# RH UPRT knock-out parasites can be induced to differentiate into bradyzoites in low CO2, resulting in pyrimidine starvation. (Bohne et al., (eds) (1997) Stage-specific expression of a selectable marker in T. gondii permits selective inhibition of either tachyzoites or bradyzoites Vol. 88. Mol Biochem Parasitol; Bohne et al., (1997) Mol Biochem Parasitol 88, 115-126). […] Bradyzoite induction under this method was assessed and followed by cyst wall detection using the Dolichos biflorus lectin (Boothroyd et al., (1997) Philos Trans R Soc Lond B Biol Sci 352, 1347-1354). […]
# T. gondii bradyzoites = assay: In vitro transformation of encysted bradyzoites into tachyzoites (P21/SAG1 markers and Hsp90 localization by IFA)
# Method: Released PK bradyzoites from brain cysts of infected mice were incubated with 100 nM GA or DMSO for 2 hours, washed, inoculated onto a confluent HFF monolayers, and grown under tachyzoite conditions. IFAs were performed at 4 and 24 hours post-inoculation. To identify mature bradyzoites, parasites were stained using a monoclonal anti-p21 antibody, and tachyzoites were stained using rabbit anti-SAG1. […] The y-axis depicts the number of parasites per/PV-cysts, and the x-axis depicts time in hours. […] The y-axis depicts the number of parasites per/PV-cysts, and the x-axis depicts time in hours. Parasites with cytoplasmic Hsp90 were treated with GA (Hsp90c-GA) or DMSO (Hsp90c-DMSO); parasites with cytoplasmic and nuclear Hsp90 were treated with GA (Hsp90c,n-GA) or DMSO (Hsp90n,c-DMSO). 100 PV-Cysts were counted at random in three independent experiments.
# Cysts were isolated from brains of mice infected intraperitoneally 4 weeks before with PK or Me49 strain tachyzoites. Cysts were purified by isopycnic centrifugation on a percoll gradient and encysted bradyzoites were freed by trypsin digestion. In the case of GA experiments, free bradyzoites were incubated in culture media with GA […] or DMSO for 2 h, then parasites were pelleted and washed. One hundred thousand bradyzoites were inoculated onto 12 mm coverslips covered with a confluent monolayer of HFFs. Intracellular localization of Hsp90 was followed by IFA after 4 and 24 hours of infection using anti-Hsp90 serum (1:100). Monoclonal antibodies, specific to the tachyzoite surface protein SAG1 or to the bradyzoite specific protein P21 (mAb T84G10), were used to monitor stage conversion.
# GA (InvivoGen, San Diego, Calif.) was dissolved in dimethyl sulfoxide (DMSO) at […]. The drug was diluted in normal culture media to the required concentrations prior to use. A range of concentrations from 1 nM to 5 μM were initially assayed to determine an effective concentration for subsequent experiments. DMSO was added in similar concentrations to control slides. For replication rate studies, the number of parasites per parasitophorous vacuole or cysts (PV-Cyst) was determined for at least 100 PV-Cyst per treatment (GA or DMSO) in replicate experiments. To measure the effect of GA on stage conversion, GA was added in bradyzoite induction experiments (as described above), slides were analyzed by IFA, and the number of P34 positive vacuoles was determined in both GA and DMSO treated cultures. Analysis of intracellular localization of Hsp90 was assessed in the same way but using rabbit anti-TgHsp90 serum. In the in vitro transformation of encysted bradyzoites into tachyzoites experiments, parasites were treated with GA (as described above) and then analyzed by IFA counting P21 and […] positive PV-Cysts in treated and control groups. For replication rate studies, the number of parasites per PV/cysts was determined for at least 100 PV-Cyst per treatment in replicate experiments.
# T. gondii [2] = assay: Parasite replication rate under bradyzoite differentiation conditions (parasites per PV-cyst, IFA); conditions: 4 days, 100 nM GA
# Method: FIG. 5 is a graph showing that geldanamycin A (GA) affects bradyzoite replication rate. PK strain (an avirulent derivative of the Me49 strain) and ΔUPRT strain (a strain with a stage-specific selectable marker) parasites were grown under bradyzoite differentiation conditions for 4 days in the presence of 100 nM of GA or DMSO. IFAs were carried out with rabbit anti-T. gondii Hsp90 serum. Fluorescent parasites were counted and the number of parasites per parasitophorous vacuole (PV)-cysts was graphed. One hundred PV-cysts were counted. Student t test was performed by Prism3™ program (Graphpad). *p 0.05, **p 0.01. The y-axis represents the number of parasites/PV-cysts.
# RH UPRT knock-out parasites can be induced to differentiate into bradyzoites in low CO2, resulting in pyrimidine starvation. […] Bradyzoite induction under this method was assessed and followed by cyst wall detection using the Dolichos biflorus lectin (Boothroyd et al., (1997) Philos Trans R Soc Lond B Biol Sci 352, 1347-1354). […]
# GA (InvivoGen, San Diego, Calif.) was dissolved in dimethyl sulfoxide (DMSO) at […]. […] For replication rate studies, the number of parasites per parasitophorous vacuole or cysts (PV-Cyst) was determined for at least 100 PV-Cyst per treatment (GA or DMSO) in replicate experiments. […] Analysis of intracellular localization of Hsp90 was assessed in the same way but using rabbit anti-TgHsp90 serum. […]
# [3] = 24 hours, Me49 bradyzoites incubated 2 hours with GA, washed, tachyzoite conditions
# [4] = GA treated bradyzoites, time point not stated
structure (smiles),measurement,setting,value
"COC1=C2C[C@@H](C)C[C@H](OC)[C@H](O)[C@@H](C)/C=C(\C)[C@H](OC(N)=O)[C@@H](OC)/C=C\C=C(/C)C(=O)NC(=CC1=O)C2=O [GA, geldanamycin A]",parasite vacuoles showing P34- and Hsp90c (tachyzoite phenotype),T. gondii [1],about 75%
same,P21 positive and SAG1 negative parasites,"T. gondii bradyzoites; 4 hours post-infection, all parasites (GA and DMSO), Me49 bradyzoites incubated 2 hours",more than 90%
same,parasites exhibiting Hsp90c,T. gondii bradyzoites; 24 hours post-infection,100%
same,SAG1 positive parasites,T. gondii bradyzoites; [3],less than 5%
same,parasites remaining P21 positive,T. gondii bradyzoites; [3],more than 90%
same,bradyzoites showing Hsp90c staining,T. gondii bradyzoites; [4],80%
same,"bradyzoites showing Hsp90n,c staining pattern",T. gondii bradyzoites; [4],20%
same,reduction of level of invasion compared with DMSO treated parasites,T. gondii bradyzoites; bradyzoites treated with GA,40-66%
same,reduction of parasite growth compared to DMSO controls,T. gondii [2]; PK strain,~3 fold
same,reduction of parasite growth compared to DMSO controls,T. gondii [2]; RH strain,~2 fold

# — patent publication US7968096B2, “Methods and compositions for treating toxoplasma” (priority 2005, dated 2011)
